Here are results for 1 compound from patent US11400058B2, “Intravenous formulations of coenzyme Q10 (CoQ10) and methods of use thereof” (Berg LLC, priority 2010, dated 2022).

Like-named read-outs stand apart in the source and are kept apart here.

Data set [1] in a line: Non-GLP four-week toxicity/toxicokinetic study in macaques (Mannheimer Foundation Study 2010-01). In kind it is in vivo, sub-adult male macaques. Particulars: for Tmax: male, macaque, plasma, macaques. An excerpt:
Plasma samples for toxicokinetic analysis were collected pre-dose, and at 0.25, 1, 6, 24, and 48 hr postdose on the first day of dosing. Pre-dose, but no post-dose samples were collected on Days 7, 14, 21 and 29. […] The increases for Cmax were slightly greater than directly dose-proportional. The increases for AUC0-t were apparently substantially greater than directly dose-proportional, but the nonlinearity may be in part a reflection of the sampling schedule.

The conditions of data set [2]: rats, oral; cited from earlier work.
A short description of another data set: in vivo. Particulars: Sprague Dawley, rat, iv.
For a further data set, the system named is Sk-BR3. In words: Effect on Bcl-2 family, p53 and caspases in breast cancer cells. The data set is classed as cell-based. As to conditions: Sk-BR3, 50 and 100 μM. On the procedure: (§1) Effect of CoQ10 on Breast Cancer: In another in vitro study, the effect of CoQ10 (50 and 100 μM) on various members of the Bcl-2 family (bcl-2, bcl-xl, bid, bad, bak, mcl-1, bim, and bax), p53, and caspases 4, 8, 12 in two breast cancer cell lines, MCF-7 and Sk-BR3, was evaluated. The Bcl-2 protein family has been implicated as the major contributing factor to conferral of resistance to cancer therapy.

Another data set deals with MCF-7. Described as above. In kind it is cell-based. Particulars: MCF-7, 50 and 100 μM. On the procedure: as §1
For the next data set, the system named is Caspase 3 in HDFa cells. In words: Western blot for Caspase 3 protein. The data set is classed as cell-based. As to conditions: 24 hours. Here is the method:
For the oxygen consumption rate assay, the oxygen consumption rates in the cell lines was determined using the Seahorse apparatus. The caspase 3 activity was determined using a colorimetric method using a commercially available kit according to manufacturer's instructions. The increase in the expression of Caspase 3 as a measure of apoptosis was determined by western blotting analysis using an antibody specific for detection of Caspase 3 protein.
Caspase 3 levels were determined in various cell lines following treatment with the same two CoQ10 N formulations as used above (the first formulation included 4% CoQ10; 3% DMPC; and 93% water, and the second formulation included 4% CoQ10; 3% DMPC; 1.5% Poloxamer P188; and 91.5% water). Specifically, PC-3, HepG2, MCF-7, HDFa and MIAPACA2 cells were treated with the CoQ10 IV formulation and harvested after 24 hours of treatment. The whole cell pellets of these cells were used for Western Blots. Sample volumes equivalent to 10 μg of protein were prepared with Lamelli Loading Dye (LDS) and water and run on a 4-12% Bis-Tris Novel NuPAGE gel on two 10 lane gels (15 μL loaded per lane) as detailed below. […]
On the technique in general: In western blotting, separated proteins are transferred to a membrane and probed.

The conditions of data set [3]: beagle, dog, in vivo, iv.
Description: In the second dog toxicity study, Charles River Study Number 20000334, CoQ10 IV Formulation was administered as short intravenous infusions at the rate of 5.0 mL/min three times a week for four weeks.
An additional two dogs/sex were included in each group and maintained for a 2-week recovery after treatment. A single test article concentration of 40 mg/mL was provided for use on the study. […] Parameters evaluated included cageside observations, clinical observations, body weight, food consumption, ophthalmoscopy, electrocardiography, clinical pathology, gross pathology, organ weights, and histopathology. Blood samples for determination of the plasma concentrations of CoQ10 IV Formulation were collected pre-dose and at 5, 15, 30 and 60 minutes and at 2, 4, 8 and 24 hours post-dose on Days 1 and 26.

Description for in vivo: In the second rat toxicity study, Charles River Study Number 20000328, CoQ10 was administered as short intravenous infusions at the rate of 1.0 mL/min three times a week for four weeks. For the toxicokinetic evaluation, three groups of nine male and nine females received 62.5, 125, and 250 mg/kg CoQ10 IV Formulation (Table 20). On Days 1 and 26, samples were collected from subgroups of three males and three females at 5 and 15 minutes, and at 1, 4, 24 and 48 hr post-dose.
4-Week Repeat-Dose Toxicology Study of CoQ10 IV Formulation In Rats: Four groups of young adult Sprague Dawley rats (n=10/sex/group) received the vehicle (PBS containing Poloxamer 188 and DMPC) or the test article at doses of 0, 62.5, 125 and 250 mg/kg by IV injection three times per week (Charles River Laboratories Study Number 20000328; Table 26). An additional 5 rats/sex were included in each group and were maintained after treatment for a 2-week recovery period. […] The vehicle was administered at the same dose volume as the high-dose group. Additionally, three groups of 9 animals/sex served as toxicokinetic (TK) animals and received the test article in the same manner as the main study groups. […] Blood samples for determination of the plasma concentrations of the test article were collected from cohorts of three TK animals per sex per dose group at 5, 15 and 60 minutes and at 4, 24 and 48 hours after dosing on Days 1 and 28 (after the last dose).

For orientation: Tmax means the time from dosing to the highest level. Take `COC1=C(OC)C(=O)C(C/C=C(\C)CC/C=C(\C)CC/C=C(\C)CC/C=C(\C)CC/C=C(\C)CC/C=C(\C)CC/C=C(\C)CC/C=C(\C)CC/C=C(\C)CCC=C(C)C)=C(C)C1=O` [CoQ10, Coenzyme Q10]: the “Cmax and AUC0-t versus dose” value in data set [1] (macaques, 31.25, 62.5, 125 mg/kg IV, preliminary results) is “increased with increasing dose”. For the same compound, the Tmax in data set [1] (intravenous, one animal) was 60 min; in data set [1] (31.25-125 mg/kg IV, first day of dosing), 15 min. In addition, the “orally-administered CoQ10 absorbed” value in data set [2] was 2-3%. Besides, the AUC0-t in “in vivo” (female, 62.5 mg/kg) amounted to 2690 µg·h/mL; in the data set “in vivo” (female, 125 mg/kg), 5110 µg·h/mL; in “in vivo” (female, 250 mg/kg) it was 15500 µg·h/mL; in “in vivo” (male, 62.5 mg/kg) it was 3000 µg·h/mL; in “in vivo” (male, 125 mg/kg), 6870 µg·h/mL; in “in vivo” (male, 250 mg/kg), 16600 µg·h/mL. Besides, the AUC0-t amounted to 1207 µg·h/mL in data set [3] (female, 31.25 mg/kg); 2735 µg·h/mL in data set [3] (female, 62.5 mg/kg); 7370 µg·h/mL in data set [3] (female, 125 mg/kg); 1038 µg·h/mL in data set [3] (male, 31.25 mg/kg); 2719 µg·h/mL in data set [3] (male, 62.5 mg/kg); 7151 µg·h/mL in data set [3] (male, 125 mg/kg). The “apoptosis (activation of caspase 3, 6 and 9)” value in the data set on Sk-BR3 and in the data set with MCF-7 was “increased apoptosis” each time. Moreover, the “levels of the anti-apoptotic members (bcl-xl, mcl-1, bcl-2)” value in the data set on Sk-BR3 and with MCF-7 was “significantly decreased” each time. Besides, the “protein expression of pro-apoptotic members and BH3 subfamily members (bid, bad, bax, bim, bak)” value with Sk-BR3 and in the data set with MCF-7 was “upregulated” in each case. The “intensity of Caspase 3 lower band” value in the data set with Caspase 3 in HDFa cells is on record as “decreased”.
